Results: patent US20260137701A1, “CHOLESTENOIC ACID (CA) AND A SULFATED DERIVATIVE THEREOF, 3[BETA]-SULFATE-5-CHOLESTENOIC ACID (CA3S), AS ENDOGENOUS EPIGENETIC REGULATORS” (priority 2022, published 2026)

Tests used:
recombinant DNMT3b = recombinant DNMT3b (Homo sapiens, UniProt Q9UBC3); assay: DNMT3b enzyme kinetic (activity) assay, 3H-SAM filter; assay type: biochemical; details: FIG. 1B, 0-0.0001 M
Description: (§1) The enzyme kinetic studies were carried out by Reaction Biology Company. For the DNMT1 activity assay, the substrate solution, 0.001 mg/ml Poly(dI-dC): Poly(dI-dC) in 50 mM Tris-HCl, pH 7.5, 50 mM NaCl, 5 mM EDTA, 5 mM DTT, 1 mM PMSF, 5% glycerol, 0.01% Brij™35, 1% DMSO was used. For the DNMT3a/3b activity assay, 0.0075 mg/ml Lambda DNA in 50 mM Tris-HCl, pH 7.5, 50 mM NaCl, 5 mM EDTA, 5 mM DTT, 1 mM PMSF, 5% glycerol, 1% DMSO, was used. The indicated DNMT1, DNMT3a and DNMT3b were added to the appropriate substrate solution and gently mixed. Amounts of CA ranging from 5.08E-09 to 0.0001 M in DMSO were added to the reaction mixture by using Acoustic Technology (Echo® 550, LabCyte Inc. Sunnyvale, CA). The mixtures were first incubated for 15 min, then ^3H-SAM was added to the reaction mixture to initiate the reaction, and the mixture was incubated for 60 min at 30° C. Following incubation, the reaction mixture was finally transferred to filter-paper for detection of radioactivity counts.

recombinant DNMT1 = recombinant DNMT1 (Homo sapiens, UniProt P26358); assay: DNMT1 enzyme kinetic (activity) assay, 3H-SAM filter; assay type: biochemical; details: FIG. 1B, 0-0.0001 M
recombinant DNMT1, sequence (P26358 whole entry): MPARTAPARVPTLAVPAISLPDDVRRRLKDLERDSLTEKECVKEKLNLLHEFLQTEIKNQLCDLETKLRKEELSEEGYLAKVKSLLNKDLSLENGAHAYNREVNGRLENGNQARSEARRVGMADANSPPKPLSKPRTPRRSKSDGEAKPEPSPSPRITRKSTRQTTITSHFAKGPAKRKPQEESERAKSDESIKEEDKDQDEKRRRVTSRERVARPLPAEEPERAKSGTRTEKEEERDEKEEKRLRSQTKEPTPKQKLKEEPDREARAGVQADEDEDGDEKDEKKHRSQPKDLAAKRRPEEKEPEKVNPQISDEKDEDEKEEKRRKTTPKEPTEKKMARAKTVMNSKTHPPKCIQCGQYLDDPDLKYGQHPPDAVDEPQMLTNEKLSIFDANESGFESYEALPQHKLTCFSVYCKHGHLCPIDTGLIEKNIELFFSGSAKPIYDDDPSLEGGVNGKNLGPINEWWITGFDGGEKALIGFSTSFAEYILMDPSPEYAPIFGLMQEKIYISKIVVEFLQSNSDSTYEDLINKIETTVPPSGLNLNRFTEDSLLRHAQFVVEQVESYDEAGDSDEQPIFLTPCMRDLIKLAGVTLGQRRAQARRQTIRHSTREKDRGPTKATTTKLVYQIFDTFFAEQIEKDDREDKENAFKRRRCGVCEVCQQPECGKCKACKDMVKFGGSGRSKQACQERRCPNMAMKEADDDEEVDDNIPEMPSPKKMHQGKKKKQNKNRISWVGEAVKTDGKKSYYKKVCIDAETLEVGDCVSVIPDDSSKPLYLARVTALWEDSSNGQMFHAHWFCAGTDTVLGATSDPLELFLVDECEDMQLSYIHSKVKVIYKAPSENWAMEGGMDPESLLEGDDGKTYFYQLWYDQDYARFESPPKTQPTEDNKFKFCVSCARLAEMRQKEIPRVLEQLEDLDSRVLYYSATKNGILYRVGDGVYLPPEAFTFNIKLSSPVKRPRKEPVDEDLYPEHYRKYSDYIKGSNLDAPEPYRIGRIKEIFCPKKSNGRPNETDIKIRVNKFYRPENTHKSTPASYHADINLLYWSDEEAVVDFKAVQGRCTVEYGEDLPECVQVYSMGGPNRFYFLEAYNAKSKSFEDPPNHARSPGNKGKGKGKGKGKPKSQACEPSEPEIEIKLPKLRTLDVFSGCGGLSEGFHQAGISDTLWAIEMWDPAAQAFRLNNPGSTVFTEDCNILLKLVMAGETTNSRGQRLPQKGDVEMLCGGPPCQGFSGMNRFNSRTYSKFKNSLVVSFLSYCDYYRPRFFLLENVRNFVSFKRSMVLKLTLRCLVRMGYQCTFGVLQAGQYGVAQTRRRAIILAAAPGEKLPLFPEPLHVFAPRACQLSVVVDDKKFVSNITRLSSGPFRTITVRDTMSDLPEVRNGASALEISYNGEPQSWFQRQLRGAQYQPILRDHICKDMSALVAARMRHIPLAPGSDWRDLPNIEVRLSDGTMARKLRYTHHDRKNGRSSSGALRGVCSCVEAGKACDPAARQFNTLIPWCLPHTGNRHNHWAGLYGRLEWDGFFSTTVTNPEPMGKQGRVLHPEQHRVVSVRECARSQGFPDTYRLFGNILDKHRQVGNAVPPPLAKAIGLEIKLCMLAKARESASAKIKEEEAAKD
Description: as §1

recombinant DNMT3a = recombinant DNMT3a (Homo sapiens, UniProt Q9Y6K1); assay: DNMT3a enzyme kinetic (activity) assay, 3H-SAM filter; assay type: biochemical; details: FIG. 1B, 0-0.0001 M
recombinant DNMT3a, sequence (Q9Y6K1 whole entry, looked up): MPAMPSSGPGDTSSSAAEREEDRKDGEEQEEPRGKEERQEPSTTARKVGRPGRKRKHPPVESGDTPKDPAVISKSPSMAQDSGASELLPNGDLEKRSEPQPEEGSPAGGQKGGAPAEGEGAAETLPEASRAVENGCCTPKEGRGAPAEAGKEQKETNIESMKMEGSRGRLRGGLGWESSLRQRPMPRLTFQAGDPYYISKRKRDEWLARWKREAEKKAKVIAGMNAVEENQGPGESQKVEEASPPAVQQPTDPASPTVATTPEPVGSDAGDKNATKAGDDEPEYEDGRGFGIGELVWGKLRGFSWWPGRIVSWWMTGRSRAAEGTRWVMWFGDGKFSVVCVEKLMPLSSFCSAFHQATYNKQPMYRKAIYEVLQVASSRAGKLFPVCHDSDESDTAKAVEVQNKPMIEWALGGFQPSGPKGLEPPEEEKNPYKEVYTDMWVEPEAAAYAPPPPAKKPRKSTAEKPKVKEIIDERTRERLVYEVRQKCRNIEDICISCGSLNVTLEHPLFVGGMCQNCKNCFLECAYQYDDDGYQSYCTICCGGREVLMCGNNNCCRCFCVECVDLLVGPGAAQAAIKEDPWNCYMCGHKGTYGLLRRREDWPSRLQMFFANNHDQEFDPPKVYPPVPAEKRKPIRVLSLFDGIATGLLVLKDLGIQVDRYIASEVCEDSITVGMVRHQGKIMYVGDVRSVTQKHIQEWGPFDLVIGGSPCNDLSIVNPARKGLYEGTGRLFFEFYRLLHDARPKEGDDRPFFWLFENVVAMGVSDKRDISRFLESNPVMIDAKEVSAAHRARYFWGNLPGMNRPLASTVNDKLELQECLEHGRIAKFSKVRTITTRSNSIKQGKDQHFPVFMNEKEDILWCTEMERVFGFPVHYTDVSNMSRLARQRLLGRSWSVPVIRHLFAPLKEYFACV
Description: as §1

Hep G2 cells = assay type: in vitro ADME, human
Excerpt: Mitochondrial oxysterols, including cholestenoic acid (CA), 25-hydroxycholesterol (25HC), and 27-hydroxycholesterol (27HC), are potent regulators involved in important biological events such as lipid metabolism and inflammatory responses. However, their intracellular catabolic pathways have not been fully explored. In this study, we investigated the metabolic pathways of these oxysterols and their roles in the communication between hepatocytes and macrophages.

Human THP-1 macrophages = assay: LPS induced inflammatory gene expression in macrophages, real-time RT-PCR; assay type: cell-based; details: 20 uM CA3S 30 min, then 2 ug/ml LPS 6 hours
Description: Human THP-1 were plated in 6 well plates with RPMI 1640 media (10% FBS) and induced to be macrophages by 100 nM PMA for 3 days at 37° C. in a […] incubator. The media was then changed to fresh RPMI 1640 (serum free), the cells were treated with 20 uM CA3S in PG for 30 min, and then the cells were stimulated with 2 ug/ml LPS for 6 hours. Total mRNA was extracted by the Promega SV total RNA isolation system (Promega, Madison, WI, USA) and 1 ug of RNA were converted to cDNA with a Reverse Transcription kit (Qiagen, Hilden, Germany). IL-1A, IL-1B, IL-6, IL-8, COX-2, NFKB and TNFα gene expressions were determined by Real-time RT-PCR that was performed using SYBR Green as the indicator on ABI 7500 Fast Real-Time PCR System (Applied Biosystems, Foster City, CA).

Row | SMILES | effect on DNMT3b enzymatic activity (recombinant DNMT3b) | effect on DNMT1 enzymatic activity (recombinant DNMT1) | effect on DNMT3a enzymatic activity (recombinant DNMT3a) | part of formed 25HC3S released into the media (Hep G2 cells) | part of the compound converted to 27HC3S (Hep G2 cells) | part of the compound converted to CA3S (Hep G2 cells) | decrease of COX-2 gene expression (Human THP-1 macrophages) [fold] | decrease of IL-6 gene expression (Human THP-1 macrophages) [fold]
1 | C[C@H](CCCC(C)(C)O)[C@H]1CC[C@H]2[C@@H]3CC=C4C[C@@H](O)CC[C@]4(C)[C@H]3CC[C@]12C [25HC, 25-hydroxycholesterol] | do not have any effect | potent activators | do not have any effect | ⅓ | – | – | – | –
2 | C[C@@H](CO)CCC[C@@H](C)[C@H]1CC[C@H]2[C@@H]3CC=C4C[C@@H](O)CC[C@]4(C)[C@H]3CC[C@]12C [27HC, 27-hydroxycholesterol] | do not have any effect | potent activators | do not have any effect | – | ⅓ | ⅔ | – | –
3 | CC(CCC[C@@H](C)[C@H]1CCC2[C@@H]3CC=C4CC(OS(=O)(=O)O)CC[C@]4(C)C3CC[C@@]21C)C(=O)O (stereo partly drawn) [CA3S, 3 β-hydroxy-5-cholestenoic acid 3-sulfate] | – | – | – | – | – | – | 5 | 6
